Experiments:
Test in all cases: relative viability (nuclei count vs DMSO), 5 days (fraction); higher = more cells survive
201T = tested on: 201T
Method in brief: (§1)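 Medians of duplicate plates are given as relative viability. That measure is the nuclei count in treated wells divided by the count in vehicle wells. Counts were taken on 4× images of lung cancer cell lines in 1536-well plates, 5 days after pin-tool dosing the day after seeding with one drug alone or a fixed anchor-drug dose plus five library-drug doses (not always all listed) in √10 steps.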

A-427 = tested on: A-427
Method in brief: as §1

ABC-1 = tested on: ABC-1
Method in brief: as §1

BEN = tested on: BEN
Method in brief: as §1

CAL-12T = tested on: CAL-12T
Method in brief: as §1

H3255 = tested on: H3255
Method in brief: as §1

LC-2-ad = tested on: LC-2-ad
Method in brief: as §1

LCLC-97TM1 = tested on: LCLC-97TM1
Method in brief: as §1

NCI-H1650 = tested on: NCI-H1650
Method in brief: as §1

NCI-H1651 = tested on: NCI-H1651
Method in brief: as §1

NCI-H1915 = tested on: NCI-H1915
Method in brief: as §1

NCI-H1944 = tested on: NCI-H1944
Method in brief: as §1

NCI-H2023 = tested on: NCI-H2023
Method in brief: as §1

NCI-H2087 = tested on: NCI-H2087
Method in brief: as §1

NCI-H441 = tested on: NCI-H441
Method in brief: as §1

NCI-H460 = tested on: NCI-H460
Method in brief: as §1

NCI-H520 = tested on: NCI-H520
Method in brief: as §1

NCI-H596 = tested on: NCI-H596
Method in brief: as §1

NCI-H650 = tested on: NCI-H650
Method in brief: as §1

NCI-H661 = tested on: NCI-H661
Method in brief: as §1

NCI-H727 = tested on: NCI-H727
Method in brief: as §1

PC-3 [JPC-3] = tested on: PC-3 [JPC-3]
Method in brief: as §1

Compound: O=c1cc(-c2cccc3c2Sc2ccccc2S3)oc(N2CCOCC2)c1 + COc1cc2c(Oc3ccc(NC(=O)C4(C(=O)Nc5ccc(F)cc5)CC4)cc3F)ccnc2cc1OCCCN1CCOCC1 [Foretinib] (partner 0.25 µM)
- relative viability (201T; first compound 0.08 µM): 1.14
- relative viability (201T; first compound 0.253 µM): 1.08
- relative viability (201T; first compound 0.8 µM): 0.787
- relative viability (201T; first compound 2.53 µM): 1.06
- relative viability (201T; first compound 8 µM): 1.01
- relative viability (A-427; first compound 0.08 µM): 1.05
- relative viability (A-427; first compound 0.253 µM): 1
- relative viability (A-427; first compound 0.8 µM): 1.06
- relative viability (A-427; first compound 8 µM): 1.11
- relative viability (ABC-1; first compound 0.08 µM): 1.25
- relative viability (ABC-1; first compound 0.253 µM): 1.17
- relative viability (ABC-1; first compound 0.8 µM): 1.2
- relative viability (ABC-1; first compound 2.53 µM): 1.04
- relative viability (ABC-1; first compound 8 µM): 1.31
- relative viability (BEN; first compound 0.08 µM): 0.485
- relative viability (BEN; first compound 0.253 µM): 0.662
- relative viability (BEN; first compound 0.8 µM): 0.674
- relative viability (BEN; first compound 2.53 µM): 0.578
- relative viability (BEN; first compound 8 µM): 0.97
- relative viability (CAL-12T; first compound 0.08 µM): 0.951
- relative viability (CAL-12T; first compound 0.253 µM): 1.15
- relative viability (CAL-12T; first compound 0.8 µM): 1.19
- relative viability (CAL-12T; first compound 2.53 µM): 1.14
- relative viability (CAL-12T; first compound 8 µM): 1
- relative viability (H3255; first compound 0.08 µM): 0.758
- relative viability (H3255; first compound 0.253 µM): 0.821
- relative viability (H3255; first compound 0.8 µM): 0.87
- relative viability (H3255; first compound 2.53 µM): 0.738
- relative viability (H3255; first compound 8 µM): 0.925
- relative viability (LC-2-ad; first compound 0.08 µM): 0.888
- relative viability (LC-2-ad; first compound 0.253 µM): 0.97
- relative viability (LC-2-ad; first compound 0.8 µM): 0.94
- relative viability (LC-2-ad; first compound 2.53 µM): 0.875
- relative viability (LC-2-ad; first compound 8 µM): 0.873
- relative viability (LCLC-97TM1; first compound 0.08 µM): 0.961
- relative viability (LCLC-97TM1; first compound 0.253 µM): 1.02
- relative viability (LCLC-97TM1; first compound 0.8 µM): 0.977
- relative viability (LCLC-97TM1; first compound 2.53 µM): 0.887
- relative viability (LCLC-97TM1; first compound 8 µM): 0.909
- relative viability (NCI-H1650; first compound 0.08 µM): 1.35
- relative viability (NCI-H1650; first compound 0.253 µM): 1.04
- relative viability (NCI-H1650; first compound 0.8 µM): 0.998
- relative viability (NCI-H1650; first compound 2.53 µM): 0.902
- relative viability (NCI-H1650; first compound 8 µM): 1.19
- relative viability (NCI-H1651; first compound 0.08 µM): 0.798
- relative viability (NCI-H1651; first compound 0.253 µM): 0.909
- relative viability (NCI-H1651; first compound 0.8 µM): 0.861
- relative viability (NCI-H1651; first compound 2.53 µM): 0.754
- relative viability (NCI-H1651; first compound 8 µM): 0.979
- relative viability (NCI-H1915; first compound 0.08 µM): 1.21
- relative viability (NCI-H1915; first compound 0.253 µM): 1.2
- relative viability (NCI-H1915; first compound 0.8 µM): 1.08
- relative viability (NCI-H1915; first compound 2.53 µM): 1.06
- relative viability (NCI-H1915; first compound 8 µM): 1.11
- relative viability (NCI-H1944; first compound 0.08 µM): 0.832
- relative viability (NCI-H1944; first compound 0.253 µM): 0.853
- relative viability (NCI-H1944; first compound 0.8 µM): 0.899
- relative viability (NCI-H1944; first compound 2.53 µM): 0.825
- relative viability (NCI-H1944; first compound 8 µM): 0.951
- relative viability (NCI-H2023; first compound 0.08 µM): 0.688
- relative viability (NCI-H2023; first compound 0.253 µM): 0.889
- relative viability (NCI-H2023; first compound 0.8 µM): 0.965
- relative viability (NCI-H2023; first compound 8 µM): 0.861
- relative viability (NCI-H2087; first compound 0.08 µM): 0.976
- relative viability (NCI-H2087; first compound 0.253 µM): 1.13
- relative viability (NCI-H2087; first compound 0.8 µM): 1.3
- relative viability (NCI-H2087; first compound 2.53 µM): 1.23
- relative viability (NCI-H2087; first compound 8 µM): 1.19
- relative viability (NCI-H441; first compound 0.08 µM): 0.512
- relative viability (NCI-H441; first compound 0.253 µM): 1.09
- relative viability (NCI-H441; first compound 0.8 µM): 1.35
- relative viability (NCI-H441; first compound 2.53 µM): 0.882
- relative viability (NCI-H441; first compound 8 µM): 0.98
- relative viability (NCI-H460; first compound 0.08 µM): 1.04
- relative viability (NCI-H460; first compound 0.253 µM): 1.01
- relative viability (NCI-H460; first compound 0.8 µM): 0.963
- relative viability (NCI-H460; first compound 2.53 µM): 1.02
- relative viability (NCI-H460; first compound 8 µM): 1.13
- relative viability (NCI-H520; first compound 0.08 µM): 0.786
- relative viability (NCI-H520; first compound 0.253 µM): 0.885
- relative viability (NCI-H520; first compound 0.8 µM): 0.835
- relative viability (NCI-H520; first compound 2.53 µM): 0.779
- relative viability (NCI-H520; first compound 8 µM): 0.985
- relative viability (NCI-H596; first compound 0.08 µM): 0.783
- relative viability (NCI-H596; first compound 0.253 µM): 0.907
- relative viability (NCI-H596; first compound 0.8 µM): 0.969
- relative viability (NCI-H596; first compound 2.53 µM): 0.789
- relative viability (NCI-H596; first compound 8 µM): 0.848
- relative viability (NCI-H650; first compound 0.08 µM): 0.998
- relative viability (NCI-H650; first compound 0.253 µM): 1.09
- relative viability (NCI-H650; first compound 0.8 µM): 1.04
- relative viability (NCI-H650; first compound 8 µM): 1.01
- relative viability (NCI-H661; first compound 0.08 µM): 1.02
- relative viability (NCI-H661; first compound 0.253 µM): 1.02
- relative viability (NCI-H661; first compound 0.8 µM): 0.92
- relative viability (NCI-H661; first compound 2.53 µM): 0.952
- relative viability (NCI-H661; first compound 8 µM): 1
- relative viability (NCI-H727; first compound 0.08 µM): 0.552
- relative viability (NCI-H727; first compound 0.253 µM): 0.867
- relative viability (NCI-H727; first compound 0.8 µM): 0.904
- relative viability (NCI-H727; first compound 2.53 µM): 0.842
- relative viability (NCI-H727; first compound 8 µM): 1.21
- relative viability (PC-3 [JPC-3]; first compound 0.08 µM): 1.06
- relative viability (PC-3 [JPC-3]; first compound 0.253 µM): 1.08
- relative viability (PC-3 [JPC-3]; first compound 0.8 µM): 1.16
- relative viability (PC-3 [JPC-3]; first compound 2.53 µM): 1.01
- relative viability (PC-3 [JPC-3]; first compound 8 µM): 1.2
